# Data: article PMC11435220, “Anticancer Activity of Imidazolyl Gold(I/III) Compounds in Non-Small Cell Lung Cancer Cell Lines” (Pharmaceuticals, 2024)
# How the values were obtained:
# HCC-44 = experiment: MTT viability assay, HCC-44; type: cell-based, human; conditions: mean ± span, 48 h treatment, cell line with KRAS mutation
# Method: (§1) NSCLC cell lines were obtained from the Hamon Center for Therapeutic Oncology Research (UT Southwestern Medical Center). IMR-90 human lung fibroblasts were from ATCC (CC-186). All cell lines were maintained and treated in RPMI medium (Cytiva (Shanghai, China), #SH30027), supplemented with 10% heat-inactivated FBS (Millipore Sigma (Darmstadt, Germany), F0394).
# (§2) 5000–10,000 cells/0.1 mL/well were seeded in 96-well plates to achieve 70% confluence after 24 h. All drug stock solutions were prepared fresh in DMSO at a concentration of 10 mM. The day after cell plating, we added 0.1 mL of medium containing the appropriate drug dilutions. After 48 h of treatment, 10 μL of MTT solution (5 mg/mL) was added to each well. After 4 h incubation, the medium was aspirated, and the formazan salts dissolved in 200 μL DMSO/well for 10 min at 37 °C. The absorbance was read at 570 nm (OD 570 nm). Data are represented as mean ± SD of two independent experiments.
# (§3) Statistical and data analysis was performed using GraphPad Prism (v10). IC50 values were calculated using a three-parameter non-linear regression model with log(inhibitor) vs. response. For the TxrR activity statistics, the groups were compared using a two-way ANOVA followed by Dunnett’s multiple comparisons with alpha = 0.05. The correlation between IC50 values and TxrR activity was achieved using Pearson correlation with alpha = 0.05.
# [1] = system: human NSCLC cell lines with KRAS mutations; experiment: MTT assay, average across NSCLC cell lines with KRAS mutations; type: cell-based; conditions: 48 h, read-out: IC50 * averaged values
# Method: as §1, §2, §3
# H522 = experiment: MTT viability assay, H522; type: cell-based, human; conditions: mean ± span, 48 h treatment, cell line without KRAS mutation
# Method: as §1, §2, §3
# H1355 = experiment: MTT viability assay, H1355; type: cell-based, human; conditions: mean ± span, 48 h treatment, cell line with KRAS mutation
# Method: as §1, §2, §3
# H1993 = experiment: MTT viability assay, H1993; type: cell-based, human; conditions: mean ± span, 48 h treatment, cell line without KRAS mutation
# Method: as §1, §2, §3
# H1395 = experiment: MTT viability assay, H1395; type: cell-based, human; conditions: mean ± span, 48 h treatment, cell line without KRAS mutation
# Method: as §1, §2, §3
# H661 = experiment: MTT viability assay, H661; type: cell-based, human; conditions: mean ± span, 48 h treatment, cell line without KRAS mutation
# Method: as §1, §2, §3
# A549 = experiment: MTT viability assay, A549; type: cell-based, human; conditions: mean ± span, 48 h treatment, cell line with KRAS mutation
# Method: as §1, §2, §3
# H460 = experiment: MTT viability assay, H460; type: cell-based, human; conditions: mean ± span, 48 h treatment, cell line with KRAS mutation
# Method: as §1, §2, §3
# [2] = system: human NSCLC cell lines without KRAS mutations; experiment: MTT assay, average across NSCLC cell lines without KRAS mutations; type: cell-based; conditions: average across cell lines without KRAS mutations (H522, H661, H1395, H1993), 48 h, read-out: IC50 * averaged values
# Method: as §1, §2, §3
# H1792 = experiment: MTT viability assay, H1792; type: cell-based, human; conditions: mean ± span, 48 h treatment, cell line with KRAS mutation
# Method: as §1, §2, §3
# [3] = system: TrxR in A549 cell lysates; experiment: Thioredoxin reductase activity in lysates of treated A549 cells; type: cell-based, human; conditions: for TrxR activity reduction / inhibition: A549, 24 h treatment, stated for both cell lines; for Mean Diff. TrxR activity vs. veh: A549 lysate, 24 h treatment at 5 μM
# Method: (§4) The enzymatic activity of TrxR in the A549 and H522 cell lysates was measured using the TrxR assay Kit (Abcam ab83463) following the manufacturer’s instructions. This kit is based on the TxrR-mediated reduction of the colorless DTNB into TNB2—(yellow). Briefly, cells were plated to reach 70% confluence on a 100-mm dish in one day. They were treated with 5 μM of the gold compounds or the equivalent quantity of DMSO for 24 h. Then, cells were washed in PBS 1X, detached, and lysed in 100 μL of cold TrxR assay buffer supplemented with the Proteinase Inhibitor Cocktail. 20 μg and 40 μg of total proteins were used for the A549 and the H522, respectively. The DTNB substrate was added to samples with or without TrxR inhibitor (provided with the kit) in 96-well plates. The OD412 was measured soon after the substrate addition (A1) and then after 25, 60, 90, and 110 min (An) at 25 °C using a FLUOstar Omega Microplate Reader (BGM Labtech, Chicago, IL, USA). Data analysis was performed following the manufacturer’s instructions. The OD of TNB2, generated by TrxR in every condition, is:ΔA412 nm = (AnAB − AnINH) − (AB − A1INH) where AB is the assay buffer, and INH is the inhibitor. The TrxR activity is:(2) ΔB/Tn−T1×mg of protein lysate×sample dilution factor=(nmol/min)/mg=mU/mg where ΔB is the TNB amount calculated applying ΔA412 nm to TNB standard curve (in nmol), T1 is the time of the first reading (A1AB, and A1INH) (in min), Tn is the time of the second reading (AnAB and AnINH) (in min). The residual TxrR activity (%) was calculated by normalizing the TxrR activity for each compound with the matching vehicle values at every n time point.
# as §3
# [4] = Solution stability by UV-visible spectra over time; type: physicochemical; conditions: for percent concentration reduction estimated from UV spectra: 100 µM solution, within an hour
# Method: Stability studies were led by acquiring UV−visible spectra of 100 µM DMSO or methanol solutions of compounds 1∓8 over time (Figures S19–S29 in Supplementary Materials). […] The stability of NHC-AuX3 complexes (with X = Cl, compounds 1 and 2, with X = Br, compounds 5 and 6) was affected by the nature of both the substituents on the imidazolyl ligand and of the halide, showing a small decrease of the UV bands maxima in an hour. By analyzing the spectral data of compounds 1 and 2, a percent concentration reduction of about 4–5% was estimated within an hour, grading them eligible for biological tests. The partial instability may be attributed to the formation of cationic bis-carbeneAuCl2 species (Equation (1)), with the [bis-carbeneAuX2]^+ and the respective AuX2^−; these ions were actually detected as positive and negative ions in the ESI-MS spectra (see Figures S12 and S13). […] Additionally, the (+)ESI MS spectrum of the acetonitrile solution of compound 6 is particularly rich in positive ions (Figure S16). As concerns the mono-/bis-carbene formation, it is likely initiated by the large trans effect of the carbene ligands, which induces the chemical lability on the trans halide, triggers […], the formation of bis-carbeneAu(III) species, and AuX2^− or AuX4^− anions:2[NHC-AuX3] ⇔ [[(NHC)2AuX2] [AuX2^−] + 2X(1) […]
# The stability of the samples 1-8 in DMSO solution was assayed by UV-visible spectroscopy. Spectra were acquired using the Shimadzu UV-2700i spectrophotometer, equipped with the Shimadzu CPS-100 Peltier, at 293 K. Unless diversely specified, 100 µM DMSO solutions of the 1-8 compounds were prepared and spectra were acquired each 10 minutes for a total of 60 minutes. The spectra obtained are reported as following.
# Figure S19. UV-Visible Spectra acquired for complex 1.
# Figure S20. UV-Visible Spectra acquired for complex 2. […]
# [5] = system: TrxR in H522 cell lysates; experiment: Thioredoxin reductase activity in lysates of treated H522 cells; type: cell-based, human; conditions: for TrxR activity reduction / inhibition: H522, 24 h treatment, stated for both cell lines; for Mean Diff. TrxR activity vs. veh: H522 lysate, 24 h treatment at 5 μM
# Method: as §4, §3
Compound,IC50 (HCC-44),IC50 [1],IC50 (H522),IC50 (H1355),IC50 (H1993),IC50 (H1395),IC50 (H661),IC50 (A549),IC50 (H460),IC50 [2],IC50 (H1792),TrxR activity reduction / inhibition [3],Mean Diff. TrxR activity vs. veh ([3]; reading at 25 min),Mean Diff. TrxR activity vs. veh ([3]; reading at 60 min),Mean Diff. TrxR activity vs. veh ([3]; reading at 90 min),Mean Diff. TrxR activity vs. veh ([3]; reading at 110 min),Mean Diff. TrxR activity vs. veh ([5]; reading at 25 min),Mean Diff. TrxR activity vs. veh ([5]; reading at 60 min),Mean Diff. TrxR activity vs. veh ([5]; reading at 90 min),Mean Diff. TrxR activity vs. veh ([5]; reading at 110 min),further results
Cn1cc[n+](C)[c]1[Au-]([Cl])([Cl])[Cl] [Compound 1],45 ± 0.25 µM,62 µM,75 ± 0.89 µM,41 ± 0.33 µM,37 ± 1.3 µM,47 ± 0.4 µM,47 ± 1.1 µM,> 100 µM,52 ± 1.2 µM,52 µM,60 ± 1.4 µM,20–30%,−16.73%,−13.1%,−26.55%,−32.38%,15.84%,−8.894%,−20.1%,−23.89%,percent concentration reduction estimated from UV spectra [4]: 4–5%; TrxR activity reduction / inhibition [5]: 20–30%
C[n+]1ccn(Cc2ccccc2)[c]1[Au-]([Cl])([Cl])[Cl] [Compound 2],26 ± 1.3 µM,41 µM,53 ± 2.1 µM,34 ± 1.4 µM,6.1 ± 0.76 µM,17 ± 0.8 µM,45 ± 1.7 µM,56 ± 1.6 µM,65 ± 2.2 µM,30 µM,24 ± 0.98 µM,20–30%,−5.148%,−11.64%,−22.67%,−30.44%,3.864%,−19.16%,−23.38%,−31.46%,percent concentration reduction estimated from UV spectra [4]: 4–5%; TrxR activity reduction / inhibition [5]: 20–30%
C[n+]1ccn(Cc2ccccc2)[c]1[Au-][Br] [Compound 4],14 ± 1.1 µM,14 µM,5.3 ± 0.88 µM,8.1 ± 0.66 µM,12 ± 1.03 µM,11 ± 0.88 µM,7 ± 0.81 µM,19 ± 1 µM,11 ± 1.2 µM,9 µM,16 ± 0.94 µM,–,−3.861%,−2.183%,−18.13%,−21.37%,23.18%,7.116%,−0.3654%,−18.72%,–
Cn1cc[n+](C)[c]1[Au-]([Br])([Br])[Br] [Compound 5],32 ± 1.6 µM,59 µM,52 ± 0.37 µM,12 ± 0.72 µM,70 ± 1.6 µM,49 ± 0.11 µM,42 ± 1.7 µM,49 ± 0.33 µM,> 100 µM,53 µM,> 100 µM,30–40%,−11.58%,−29.11%,−31.74%,−33.68%,−35.55%,−39.68%,−41.1%,−45.26%,"stability in solution ([4]; UV-visible spectra over time, DMSO, methanol, PBS buffered solutions): least stable in solution; TrxR activity reduction / inhibition [5]: 30–40%"
"[bis-(1,3-dimethyl-imidazoly-2yl)]gold(I) dibromoaurate [Compound 3]",10 ± 1.1 µM,46 µM,15 ± 1.1 µM,9.1 ± 1.03 µM,11 ± 0.96 µM,11 ± 0.63 µM,27 ± 1.2 µM,91 ± 1.03 µM,68 ± 0.1 µM,16 µM,50 ± 1.2 µM,–,−21.88%,−4.221%,−8.42%,−9.068%,−44.05%,−47.07%,−47.31%,−50.17%,–
